Source: patent publication US7115642B2, “Substituted diphenyl isoxazoles, pyrazoles and oxadiazoles useful for treating HCV infection” (priority 2003, dated 2006)
Like-named read-outs stand apart in the source and are kept apart here.

Tested on: HCV replicon (5-2 Luc replicon-comprising cells)
Test: HCV replicon assay (luciferase)
Type: cell-based, Hepatitis C virus
Settings: 5-2 Luc replicon cells, luciferase readout, read-out: Replicon IC50
From the text: In one embodiment, the inhibitory activity of the compounds can be confirmed in a replicon assay that assesses the ability of a test compound to block or inhibit HCV replication in replicon cells. One example of a suitable replicon assay is the liver cell-line Huh 7-based replicon assay described in Lohmann et al., 1999, Science 285:110–113. A specific example of this replicon assay which utilizes luciferase translation is provided in the Examples Section. In one embodiment of this assay, the amount of test compound that yields a 50% reduction in translation as compared to a control cell (IC50) may be determined.
The inhibitory activity of certain exemplary compounds of the invention was confirmed using an HCV replicon assay. The HCV replicon can include such features as the HCV 5′ untranslated region including the HCV IRES, the HCV 3′ untranslated region, selected HCV genes encoding HCV polypeptides, selectable markers, and a reporter gene such as luciferase, GFP, etc. In the assay, actively dividing 5-2 Luc replicon-comprising cells (obtained from Ralf Bartenschlager; see Lohmann et al., 1999, Science 285:110–113) were seeded at a density of between about 5,000 and 7,500 cells/well onto 96 well plates (about 90 μl of cells per well) and incubated at 37° C. and 5% CO2 for 24 hours. Then, the test compound (in a volume of about 10 μl) was added to the wells at various concentrations and the cells were incubated for an additional 24 hours before luciferase assay. Briefly, the Bright-Glo reagent was diluted 1:1 with PBS and 100 μl of diluted reagent was added to each well. After 5 min of incubation at room temperature, luciferin emission was quantified with a luminometer. In this assay, the amount of test compound that yielded a 50% reduction in luciferase activity (IC50) was determined.
In TABLE 1, a value of “+” indicates an IC50 of 10 μM or less in the specified assay; a value of “−” indicates an IC50 of greater than 10 μM in the specified assay.

Compound | IC50 [µM] | IC50 (Hepatitis C virus) [µM]
CN(C)C1CCN(c2cccc(Cl)c2-c2cc(-c3cccc(NC(=O)C(Cl)Cl)c3)on2)C1 (racemic) [Compound 132, (±)-2,2-Dichloro-N-[3-[3-[2-chloro-6-(3-dimethylamino-N-pyrrolidino)phenyl]-5-isoxazolyl]-phenyl]Acetamide] | < 10 | –
Cc1cc(OCCN2CCOCC2)cc(C)c1-c1cc(-c2cccc(NC(=O)C(Cl)Cl)c2)on1 [Compound 23, 2,2-Dichloro-N-[3-[3-[2,6-dimethyl-4-(N-morpholino-2-ethyleneoxy)phenyl]-5-isoxazolyl]phenyl]Acetamide] | < 10 | –
CN(C(=O)C(Cl)Cl)c1cccc(-c2cc(-c3c(Cl)cccc3Cl)no2)c1 [Compound 57, 2,2-Dichloro-N-[3-[3-(2,6-dichlorophenyl)-5-isoxazolyl]phenyl]-N-methyl Acetamide] | < 10 | –
O=C(Nc1cccc(-c2cc(-c3c(Cl)cc(OCCCN4CCOCC4)cc3Cl)no2)c1)C(Cl)Cl [Compound 73, 2,2-Dichloro-N-[3-[3-[2,6-dichloro-4-(N-morpholinopropyleneoxy)phenyl]-5-isoxazolyl]-phenyl]Acetamide] | < 10 | –
O=C(Nc1cccc(-c2noc(-c3c(Cl)cccc3Cl)n2)c1)C(Cl)Cl [Compound 87, 2,2-Dichloro-N-[3-[5-(2,6-dichlorophenyl)-3-(1,2,4-oxadiazolyl)]phenyl]Acetamide] | < 10 | –
O=C(Nc1cccc(-c2cc(-c3c(Cl)cccc3OCCN3CCOCC3)no2)c1)C(Cl)Cl [Compound 95, 2,2-Dichloro-N-[3-[3-[2-chloro-6-(N-morpholino-2-ethyleneoxy)phenyl]-5isoxazolyl]-phenyl]Acetamide] | < 10 | –
CN1CCN(c2cccc(Cl)c2-c2cc(-c3cccc(NC(=O)C(Cl)Cl)c3)on2)CC1 [Compound 99, 2,2-Dichloro-N-[3-[3-[2-chloro-6-(4-methylpiperazino)phenyl]-5-isoxazolyl]phenyl]Acetamide] | – | < 10
O=C(Nc1ccc(S(=O)(=O)NN2CCOCC2)c(-c2cc(-c3c(Cl)cccc3Cl)no2)c1)C(Cl)Cl [Compound 107, 2,2-Dichloro-N-[3-[3-(2,6-dichlorophenyl)-5-isoxazolyl]4-(N-morpholinosulfamoyl)-phenyl]Acetamide] | – | < 10
COC(=O)c1ccccc1-c1cc(-c2cccc(NC(=O)C(Cl)Cl)c2)on1 [Compound 115, 2,2-Dichloro-N-[3-[3-(2-carbomethoxy)phenyl-5-isoxazolyl]phenyl]Acetamide] | < 10 | –
O=C(Nc1cccc(-c2cc(-c3c(Cl)cccc3-n3ccnc3)no2)c1)C(Cl)Cl [Compound 117, 2,2-Dichloro-N-[3-[3-[2-chloro-6-(N-imidazolyl)phenyl]-5-isoxazolyl]phenyl]Acetamide] | – | < 10
O=C(Nc1cccc(-c2cc(-c3ccccc3-c3ccccc3)no2)c1)C(Cl)Cl [Compound 123, 2,2-Dichloro-N-[3-[3-(2-phenyl)phenyl-5-isoxazolyl]phenyl]Acetamide] | < 10 | –
O=C(Nc1cccc(-c2cc(-c3c(Cl)cc(OCCN4CCCCC4)cc3Cl)no2)c1)C(Cl)Cl [Compound 125, 2,2-Dichloro-N-[3-[3-[2,6-dichloro-4-(N-piperidinylethylenoxy)phenyl]-5-isoxazolyl]-phenyl]Acetamide] | < 10 | –
CN(C)CCN(C)c1cccc(Cl)c1-c1cc(-c2cccc(NC(=O)C(Cl)Cl)c2)on1 [Compound 131, 2-Dichloro-N-[3-[3-[2-chloro-6-(N,N-dimethylethylene-N′-methylamino)phenyl]-5-isoxazolyl]-phenyl]Acetamide] | < 10 | –
O=C(Nc1cccc(-c2cc(-c3c(Cl)cc(Cl)cc3OCCN3CCOCC3)no2)c1)C(Cl)Cl [Compound 143, 2,2-Dichloro-N-[3-[3-[2,4-dichloro-6-(N-morpholino-2-ethyleneoxy)phenyl]-5-isoxazolyl]-phenyl]Acetamide] | > 10 | –
CCOC(=O)C1CCN(c2cccc(Cl)c2-c2cc(-c3cccc(NC(=O)C(Cl)Cl)c3)on2)CC1 [Compound 151, 2,2-Dichloro-N-[3-[3-[2-chloro-6-(4-carboethoxypiperidino)phenyl]-5-isoxazolyl]-phenyl]Acetamide] | – | > 10
CS(=O)(=O)c1cccc(F)c1-c1cc(-c2cccc(NC(=O)C(Cl)Cl)c2)on1 [Compound 153, 2,2-Dichloro-N-[3-[3-(2-fluoro-6-methylsulfonyl)phenyl-5-isoxazolyl]phenyl]Acetamide] | > 10 | –
O=C(O)c1ccccc1-c1cc(-c2cccc(NC(=O)C(Cl)Cl)c2)on1 [Compound 157, 2,2-Dichloro-N-[3-[3-(2-carboxyphenyl)-5-isoxazolyl]phenyl]Acetamide] | – | > 10
O=C(Nc1cc(-c2cc(-c3c(Cl)cccc3Cl)no2)ccc1N1CCOCC1)C(Cl)Cl [Compound 169] | > 10 | –
O=C(Nc1cc(-c2cc(-c3c(Cl)cccc3Cl)no2)ccc1OCCN1CCOCC1)C(Cl)Cl [Compound 171, 2,2-Dichloro-N-[3-[3-(2,6-dichlorophenyl)-5-isoxazolyl]-6-(N-morpholino-2-ethyleneoxy)phenyl]Acetamide] | > 10 | –
COc1ccc(-c2cc(-c3c(Cl)cccc3Cl)no2)cc1NC(=O)C(Cl)Cl [Compound 173, 2,2-Dichloro-N-[3-[3-(2,6-dichlorophenyl)-5-isoxazolyl]-6-methoxyphenyl]Acetamide] | – | < 10
O=C(Nc1cccc(-c2cc(-c3c(Cl)cccc3N3CCOCC3)no2)c1)C(Cl)Cl [Compound 500] | < 10 | –
O=C(Nc1cccc(-c2cc(-c3c(Cl)cccc3N3CCN(c4ccccn4)CC3)no2)c1)C(Cl)Cl [Compound 501] | < 10 | –
O=C(Nc1cccc(-c2cc(-c3c(Cl)cccc3N3CCCCC3)no2)c1)C(Cl)Cl [Compound 503] | < 10 | –

Compound | IC50 [µM] | IC50 (Hepatitis C virus) [µM]
NC1CCN(c2cccc(Cl)c2-c2cc(-c3cccc(NC(=O)C(Cl)Cl)c3)on2)C1 (stereo not drawn) [Compound 504] | < 10 | –
CCNc1cccc(Cl)c1-c1cc(-c2cccc(NC(=O)C(Cl)Cl)c2)on1 [Compound 507] | < 10 | –
CCN(CC)c1cccc(Cl)c1-c1cc(-c2cccc(NC(=O)C(Cl)Cl)c2)on1 [Compound 508] | < 10 | –
CC(C)(C)OC(=O)N1CCN(c2cccc(Cl)c2-c2cc(-c3cccc(NC(=O)C(Cl)Cl)c3)on2)CC1 [Compound 510] | < 10 | –
O=C(Nc1cccc(-c2cc(-c3c(Cl)cccc3N3CCNCC3)no2)c1)C(Cl)Cl [Compound 511] | < 10 | –
[N-]=[N+]=Nc1cccc(Cl)c1-c1cc(-c2cccc(NC(=O)C(Cl)Cl)c2)on1 [Compound 512] | < 10 | –
O=C(Nc1cccc(-c2cc(-c3c(Cl)cccc3N3CCN(C(=O)c4ccccn4)CC3)no2)c1)C(Cl)Cl [Compound 513] | < 10 | –
O=C(Nc1cccc(-c2cc(-c3c(Cl)cccc3N3CCN(S(=O)(=O)c4ccccc4)CC3)no2)c1)C(Cl)Cl [Compound 514] | < 10 | –
O=C(Nc1cccc(-c2cc(-c3c(Cl)cccc3N3CCN(c4cnccn4)CC3)no2)c1)C(Cl)Cl [Compound 515] | < 10 | –
O=C(Nc1cccc(-c2cc(-c3c(Cl)cccc3N3CCN(c4ccccc4)CC3)no2)c1)C(Cl)Cl [Compound 516] | < 10 | –
O=C(Nc1cccc(-c2cc(-c3c(Cl)cccc3N3CCN(c4ncccn4)CC3)no2)c1)C(Cl)Cl [Compound 517] | < 10 | –
O=C(Nc1cccc(-c2cc(-c3c(Cl)cccc3N3CCN(C(=O)c4ccco4)CC3)no2)c1)C(Cl)Cl [Compound 519] | < 10 | –
O=C(Nc1cccc(-c2cc(-c3c(N4CCN(c5ccccn5)CC4)cccc3C(F)(F)F)no2)c1)C(Cl)Cl [Compound 520] | < 10 | –
O=C(Nc1cccc(-c2cc(-c3c(F)cccc3N3CCN(c4ccccn4)CC3)no2)c1)C(Cl)Cl [Compound 521] | < 10 | –
O=C(Nc1cccc(-c2cc(-c3c(Cl)cccc3N3CCN(Cc4cccnc4)CC3)no2)c1)C(Cl)Cl [Compound 522] | < 10 | –
O=C(Nc1cccc(-c2cc(-c3c(Cl)cccc3N3CCCN(c4ccccn4)CC3)no2)c1)C(Cl)Cl [Compound 523] | < 10 | –
COc1cccc(N2CCN(c3cccc(Cl)c3-c3cc(-c4cccc(NC(=O)C(Cl)Cl)c4)on3)CC2)c1 [Compound 524] | < 10 | –
O=C(Nc1cccc(-c2cc(-c3c(Cl)cccc3N3CCN(Cc4ccccn4)CC3)no2)c1)C(Cl)Cl [Compound 526] | < 10 | –
O=C(Nc1cccc(-c2cc(-c3c(Cl)cccc3N3CCC(OC(=O)C(Cl)Cl)CC3)no2)c1)C(Cl)Cl [Compound 527] | < 10 | –
O=C(Nc1cccc(-c2cc(-c3c(Cl)cccc3N3CCC(O)CC3)no2)c1)C(Cl)Cl [Compound 528] | < 10 | –
CS(=O)(=O)N1CCN(c2cccc(Cl)c2-c2cc(-c3cccc(NC(=O)C(Cl)Cl)c3)on2)CC1 [Compound 529] | < 10 | –
O=C(Nc1cccc(-c2cc(-c3c(Cl)cccc3N3CCN(C(=O)c4ccno4)CC3)no2)c1)C(Cl)Cl [Compound 530] | < 10 | –
